Reference: patent publication US20250051356A1, “RIFABUTIN ANALOGS FOR THE TREATMENT OF DISEASE” (priority 2021, published 2025)
≈ marks a conversion by molar mass, not a printed value.

Key:
Format in all cases: cell-based
[1] = tested on: M. abscessus subsp. abscessus ATCC 19977; test: MIC against M. abscessus in Middlebrook 7H9 + ADC; details: Mycobacteroides abscessus, ATCC19977; ATCC 19977; 7H9 + ADC; read-out: MIC M. abscessus
[2] = tested on: A. baumannii (HUMC1 strain); test: MIC by broth microdilution against A. baumannii in RPMI + 10% FCS; details: Acinetobacter baumannii; HUMC1 strain; RPMI + 10% FCS; read-out: MIC A. baumannii
[3] = tested on: S. aureus (UAMS-1625 strain); test: MIC by broth microdilution against S. aureus; details: Staphylococcus aureus, read-out: MIC S. aureus

| SMILES | MIC [1] [µg/mL] | MIC [2] [µg/mL] | MIC [3] [µg/mL] |
| --- | --- | --- | --- |
| CO[C@H]1/C=C/O[C@@]2(C)Oc3c(C)c(O)c4c(c3C2=O)C2=NC3(CCN(CC(C)C)CC3)NC2=C(NC(=O)/C(C)=C\C=C\[C@H](C)[C@H](O)[C@@H](C)[C@@H](O)[C@@H](C)[C@H](OC(=O)CCCC(=O)OCC2CCCN(C)C2)[C@@H]1C)C4=O (stereo partly drawn) [Compound 74] | 1 | ≤ 0.002 | 0.06 (≈ 0.0582 µM) |
| CO[C@H]1/C=C/O[C@@]2(C)Oc3c(C)c(O)c4c(c3C2=O)C2=NC3(CCN(CC(C)C)CC3)NC2=C(NC(=O)/C(C)=C\C=C\[C@H](C)[C@H](O)[C@@H](C)[C@@H](O)[C@@H](C)[C@H](OC(=O)CC(=O)OCC(C)C)[C@@H]1C)C4=O [Compound 27] | 4 | 0.016 | 0.125 (≈ 0.132 µM) |
| CO[C@H]1/C=C/O[C@@]2(C)Oc3c(C)c(O)c4c(c3C2=O)C2=NC3(CCN(CC(C)C)CC3)NC2=C(NC(=O)/C(C)=C\C=C\[C@H](C)[C@H](O)[C@@H](C)[C@@H](O)[C@@H](C)[C@H](OC(=O)CC(=O)NCCN2CCOCC2)[C@@H]1C)C4=O [Compound 23] | 1 | ≤ 0.002 | 0.03 (≈ 0.0299 µM) |
| CO[C@H]1/C=C/O[C@@]2(C)Oc3c(C)c(O)c4c(c3C2=O)C2=NC3(CCN(CC(C)C)CC3)NC2=C(NC(=O)/C(C)=C\C=C\[C@H](C)[C@H](O)[C@@H](C)[C@@H](O)[C@@H](C)[C@H](OC(=O)CC(=O)OCc2ccccc2)[C@@H]1C)C4=O [Compound 26] | 4 | 0.03 | 0.5 (≈ 0.51 µM) |
| CO[C@H]1/C=C/O[C@@]2(C)Oc3c(C)c(O)c4c(c3C2=O)C2=NC3(CCN(CC(C)C)CC3)NC2=C(NC(=O)/C(C)=C\C=C\[C@H](C)[C@H](O)[C@@H](C)[C@@H](O)[C@@H](C)[C@H](OC(=O)CC(=O)N2CCN(C)CC2)[C@@H]1C)C4=O [Compound 10] | 1 | ≤ 0.002 | 0.016 (≈ 0.0164 µM) |
| CO[C@H]1/C=C/O[C@@]2(C)Oc3c(C)c(O)c4c(c3C2=O)C2=NC3(CCN(CC(C)C)CC3)NC2=C(NC(=O)/C(C)=C\C=C\[C@H](C)[C@H](O)[C@@H](C)[C@@H](O)[C@@H](C)[C@H](OC(=O)C(C)C(=O)N2CCCCC2)[C@@H]1C)C4=O (stereo partly drawn) [Compound 37] | 0.5 | ≤ 0.002 | 0.03 (≈ 0.0309 µM) |
| CO[C@H]1/C=C/O[C@@]2(C)Oc3c(C)c(O)c4c(c3C2=O)C2=NC3(CCN(CC(C)C)CC3)NC2=C(NC(=O)/C(C)=C\C=C\[C@H](C)[C@H](O)[C@@H](C)[C@@H](O)[C@@H](C)[C@H](OC(=O)CC(=O)N2CCC([C@@H](O)c3nccn3C)CC2)[C@@H]1C)C4=O [Compound 53] | 1 | ≤ 0.002 | 0.125 (≈ 0.117 µM) |
| CO[C@H]1/C=C/O[C@@]2(C)Oc3c(C)c(O)c4c(c3C2=O)C2=NC3(CCN(CC(C)C)CC3)NC2=C(NC(=O)/C(C)=C\C=C\[C@H](C)[C@H](O)[C@@H](C)[C@@H](O)[C@@H](C)[C@H](OC(=O)CC(=O)N2CCC(NC(=O)OC(C)(C)C)CC2)[C@@H]1C)C4=O [Compound 59] | 0.5 | 0.008 | 0.125 (≈ 0.116 µM) |
| CO[C@H]1/C=C/O[C@@]2(C)Oc3c(C)c(O)c4c(c3C2=O)C2=NC3(CCN(CC(C)C)CC3)NC2=C(NC(=O)/C(C)=C\C=C\[C@H](C)[C@H](O)[C@@H](C)[C@@H](O)[C@@H](C)[C@H](OC(=O)CC(=O)N2CCC(N(C)C)CC2)[C@@H]1C)C4=O [Compound 7] | 1 | ≤ 0.002 | 0.016 (≈ 0.016 µM) |
| CO[C@H]1/C=C/O[C@@]2(C)Oc3c(C)c(O)c4c(c3C2=O)C2=NC3(CCN(CC(C)C)CC3)NC2=C(NC(=O)/C(C)=C\C=C\[C@H](C)[C@H](O)[C@@H](C)[C@@H](O)[C@@H](C)[C@H](OC(=O)CC(=O)N2CCN(C3CCN(C)CC3)CC2)[C@@H]1C)C4=O [Compound 112] | 1 | 0.004 | 0.125 (≈ 0.118 µM) |
| CO[C@H]1/C=C/O[C@@]2(C)Oc3c(C)c(O)c4c(c3C2=O)C2=NC3(CCN(CC(C)C)CC3)NC2=C(NC(=O)/C(C)=C\C=C\[C@H](C)[C@H](O)[C@@H](C)[C@@H](O)[C@@H](C)[C@H](OC(=O)CC(=O)OCCc2ccccc2)[C@@H]1C)C4=O [Compound 31] | 4 | 0.125 | 1 (≈ 1 µM) |
